According to the kinase profiling compilation of Christmann-Franck et al. (2016):

Legend:
Test in all cases: KINOMEscan competition binding
Details in all cases: compound 1.0 µM
[1] = target: ACVR2B (human) (UniProt Q13705)
[2] = target: AKT1 (human) (UniProt P31749)
[3] = target: CDC42BPB (human) (UniProt Q9Y5S2)
[4] = target: CDKL5 (human) (UniProt O76039)
[5] = target: CLK4 (human) (UniProt Q9HAZ1)
[6] = target: CSNK2A1 (human) (UniProt P68400)
[7] = target: EIF2AK2 (human) (UniProt P19525)
[8] = target: EPHA1 (human) (UniProt P21709)
[9] = target: EPHA5 (human) (UniProt P54756)
[10] = target: ERBB3 (human) (UniProt P21860)
[11] = test system: FLT3 (human), P36888 [ITD]
[12] = target: FYN (human) (UniProt P06241)
[13] = target: GAK (human) (UniProt O14976)
[14] = target: JAK1 JH2 pseudokinase (human) (UniProt P23458)
[15] = target: MAP3K1 (human) (UniProt Q13233)
[16] = target: MAP3K2 (human) (UniProt Q9Y2U5)
[17] = target: MAP4K1 (human) (UniProt Q92918)
[18] = target: MAPK1 (human) (UniProt P28482)
[19] = target: MAPK8 (human) (UniProt P45983)
[20] = target: MARK3 (human) (UniProt P27448)
[21] = target: MYO3B (human) (UniProt Q8WXR4)
[22] = target: NEK4 (human) (UniProt P51957)
[23] = target: OXSR1 (human) (UniProt O95747)
[24] = target: PAK3 (human) (UniProt O75914)
[25] = target: PRKAA1 (human) (UniProt Q13131)
[26] = target: PRKACB (human) (UniProt P22694)
[27] = target: PRKX (human) (UniProt P51817)
[28] = target: PRPF4B (human) (UniProt Q13523)
[29] = target: RIPK1 (human) (UniProt Q13546)
[30] = target: ROCK1 (human) (UniProt Q13464)
[31] = target: RPS6KA5 KD2 (human) (UniProt O75582)
[32] = target: STK17A (human) (UniProt Q9UEE5)
[33] = target: STK33 (human) (UniProt Q9BYT3)
[34] = target: TGFBR2 (human) (UniProt P37173)
[35] = target: TSSK1B (human) (UniProt Q9BXA7)
[36] = target: TTK (human) (UniProt P33981)
[37] = target: VRK2 (human) (UniProt Q86Y07)
[38] = target: WEE1 (human) (UniProt P30291)
[39] = target: WEE2 (human) (UniProt P0C1S8)

Chain of FLT3 (human), P36888 [ITD] (P36888 whole entry, looked up, change not shown): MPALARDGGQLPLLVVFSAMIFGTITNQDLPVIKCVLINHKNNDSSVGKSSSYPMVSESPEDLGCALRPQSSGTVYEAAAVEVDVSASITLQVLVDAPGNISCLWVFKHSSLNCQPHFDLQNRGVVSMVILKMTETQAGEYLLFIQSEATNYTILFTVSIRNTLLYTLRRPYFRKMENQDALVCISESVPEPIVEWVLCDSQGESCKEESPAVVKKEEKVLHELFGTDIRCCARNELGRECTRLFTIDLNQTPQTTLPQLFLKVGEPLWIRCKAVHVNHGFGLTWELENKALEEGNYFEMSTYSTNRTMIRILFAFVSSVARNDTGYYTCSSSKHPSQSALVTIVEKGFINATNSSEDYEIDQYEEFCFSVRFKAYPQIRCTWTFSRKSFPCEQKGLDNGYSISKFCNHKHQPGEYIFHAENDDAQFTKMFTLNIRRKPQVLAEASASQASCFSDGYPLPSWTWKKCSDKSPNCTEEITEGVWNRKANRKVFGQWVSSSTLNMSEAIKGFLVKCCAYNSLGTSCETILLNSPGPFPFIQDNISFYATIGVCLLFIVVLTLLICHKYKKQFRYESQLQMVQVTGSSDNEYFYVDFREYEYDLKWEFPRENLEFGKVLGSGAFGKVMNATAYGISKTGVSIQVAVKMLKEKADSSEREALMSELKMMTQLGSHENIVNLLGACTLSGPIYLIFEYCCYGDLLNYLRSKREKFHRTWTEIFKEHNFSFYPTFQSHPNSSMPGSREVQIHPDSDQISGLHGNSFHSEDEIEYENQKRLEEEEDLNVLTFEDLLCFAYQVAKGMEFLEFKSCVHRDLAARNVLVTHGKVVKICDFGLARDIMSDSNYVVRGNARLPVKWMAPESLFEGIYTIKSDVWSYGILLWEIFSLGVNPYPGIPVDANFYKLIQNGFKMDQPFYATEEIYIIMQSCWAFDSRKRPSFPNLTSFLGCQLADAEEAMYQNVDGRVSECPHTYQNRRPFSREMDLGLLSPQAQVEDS
Chain of RPS6KA5 KD2 (human) (O75582 whole entry, looked up): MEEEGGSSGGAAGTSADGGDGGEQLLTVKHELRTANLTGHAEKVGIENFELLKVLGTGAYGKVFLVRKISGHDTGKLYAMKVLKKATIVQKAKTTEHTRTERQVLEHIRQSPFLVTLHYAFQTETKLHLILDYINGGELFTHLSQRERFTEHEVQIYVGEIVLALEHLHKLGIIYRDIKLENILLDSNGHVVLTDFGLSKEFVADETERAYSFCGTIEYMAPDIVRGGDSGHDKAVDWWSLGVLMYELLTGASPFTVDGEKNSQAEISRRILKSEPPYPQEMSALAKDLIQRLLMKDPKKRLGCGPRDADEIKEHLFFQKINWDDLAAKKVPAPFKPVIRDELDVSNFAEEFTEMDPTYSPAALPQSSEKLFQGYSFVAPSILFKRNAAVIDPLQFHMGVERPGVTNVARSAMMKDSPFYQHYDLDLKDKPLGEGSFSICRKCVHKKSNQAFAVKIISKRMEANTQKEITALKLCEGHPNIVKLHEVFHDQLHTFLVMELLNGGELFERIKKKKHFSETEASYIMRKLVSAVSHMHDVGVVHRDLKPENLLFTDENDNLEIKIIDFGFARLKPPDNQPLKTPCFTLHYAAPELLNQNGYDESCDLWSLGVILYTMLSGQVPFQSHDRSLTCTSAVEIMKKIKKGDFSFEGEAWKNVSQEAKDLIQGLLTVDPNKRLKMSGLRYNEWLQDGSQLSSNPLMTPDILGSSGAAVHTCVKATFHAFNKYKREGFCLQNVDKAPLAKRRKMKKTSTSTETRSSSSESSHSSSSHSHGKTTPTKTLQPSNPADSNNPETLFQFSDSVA
Chain of CDC42BPB (human) (Q9Y5S2 whole entry, looked up): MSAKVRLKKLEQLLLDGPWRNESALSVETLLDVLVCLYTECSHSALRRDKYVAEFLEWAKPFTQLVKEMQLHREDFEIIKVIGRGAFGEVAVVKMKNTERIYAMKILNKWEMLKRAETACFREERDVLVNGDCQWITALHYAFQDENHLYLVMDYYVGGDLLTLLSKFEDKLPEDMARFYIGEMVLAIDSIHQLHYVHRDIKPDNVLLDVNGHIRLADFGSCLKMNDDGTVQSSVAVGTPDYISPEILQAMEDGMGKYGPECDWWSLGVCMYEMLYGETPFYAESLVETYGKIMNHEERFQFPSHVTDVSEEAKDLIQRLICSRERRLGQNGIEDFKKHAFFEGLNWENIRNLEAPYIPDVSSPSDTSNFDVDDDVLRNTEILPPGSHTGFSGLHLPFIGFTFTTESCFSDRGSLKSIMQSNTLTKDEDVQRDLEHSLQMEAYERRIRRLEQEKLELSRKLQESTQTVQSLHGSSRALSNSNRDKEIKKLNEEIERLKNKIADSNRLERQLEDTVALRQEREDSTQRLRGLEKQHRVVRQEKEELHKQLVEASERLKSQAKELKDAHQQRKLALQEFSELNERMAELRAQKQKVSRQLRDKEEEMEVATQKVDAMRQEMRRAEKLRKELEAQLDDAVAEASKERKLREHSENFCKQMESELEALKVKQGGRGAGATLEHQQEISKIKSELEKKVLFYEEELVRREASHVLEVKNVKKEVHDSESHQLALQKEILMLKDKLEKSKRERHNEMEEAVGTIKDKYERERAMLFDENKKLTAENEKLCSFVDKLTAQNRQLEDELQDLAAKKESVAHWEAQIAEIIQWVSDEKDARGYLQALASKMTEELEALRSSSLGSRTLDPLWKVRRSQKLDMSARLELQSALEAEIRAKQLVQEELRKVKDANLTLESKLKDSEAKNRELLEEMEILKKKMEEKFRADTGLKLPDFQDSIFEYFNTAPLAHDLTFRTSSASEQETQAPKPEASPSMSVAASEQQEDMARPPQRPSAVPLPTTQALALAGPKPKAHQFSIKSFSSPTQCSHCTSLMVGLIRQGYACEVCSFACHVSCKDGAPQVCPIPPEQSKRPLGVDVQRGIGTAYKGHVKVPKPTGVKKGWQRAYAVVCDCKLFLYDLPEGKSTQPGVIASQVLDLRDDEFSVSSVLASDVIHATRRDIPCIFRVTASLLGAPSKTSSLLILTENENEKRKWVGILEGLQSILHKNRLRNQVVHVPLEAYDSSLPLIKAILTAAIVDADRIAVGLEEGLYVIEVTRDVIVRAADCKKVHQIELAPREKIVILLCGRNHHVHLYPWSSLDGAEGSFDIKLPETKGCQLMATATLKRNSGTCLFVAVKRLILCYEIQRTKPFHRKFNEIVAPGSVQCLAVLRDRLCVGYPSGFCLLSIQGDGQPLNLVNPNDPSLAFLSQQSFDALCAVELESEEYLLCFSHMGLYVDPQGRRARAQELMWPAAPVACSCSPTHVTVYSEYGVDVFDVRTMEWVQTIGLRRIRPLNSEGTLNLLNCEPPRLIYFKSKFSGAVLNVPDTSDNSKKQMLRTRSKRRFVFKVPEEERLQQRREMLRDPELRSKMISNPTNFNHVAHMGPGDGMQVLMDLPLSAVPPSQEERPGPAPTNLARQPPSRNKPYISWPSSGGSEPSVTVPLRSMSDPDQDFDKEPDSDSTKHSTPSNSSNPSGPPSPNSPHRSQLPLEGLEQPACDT
Chain of OXSR1 (human) (O95747 whole entry, looked up): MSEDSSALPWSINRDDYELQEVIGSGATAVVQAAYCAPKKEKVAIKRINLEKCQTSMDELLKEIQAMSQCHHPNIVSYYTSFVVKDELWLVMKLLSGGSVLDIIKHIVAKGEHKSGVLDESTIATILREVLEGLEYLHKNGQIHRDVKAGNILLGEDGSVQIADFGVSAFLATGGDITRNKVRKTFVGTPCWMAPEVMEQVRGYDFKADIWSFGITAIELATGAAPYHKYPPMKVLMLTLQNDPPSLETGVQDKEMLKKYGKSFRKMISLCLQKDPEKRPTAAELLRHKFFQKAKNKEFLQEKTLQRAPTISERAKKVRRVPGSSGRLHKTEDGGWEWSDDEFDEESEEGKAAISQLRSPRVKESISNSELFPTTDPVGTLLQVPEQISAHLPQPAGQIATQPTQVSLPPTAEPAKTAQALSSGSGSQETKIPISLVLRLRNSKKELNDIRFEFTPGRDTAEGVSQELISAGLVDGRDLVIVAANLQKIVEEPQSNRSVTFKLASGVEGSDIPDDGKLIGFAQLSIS
Chain of CLK4 (human) (Q9HAZ1 whole entry, looked up): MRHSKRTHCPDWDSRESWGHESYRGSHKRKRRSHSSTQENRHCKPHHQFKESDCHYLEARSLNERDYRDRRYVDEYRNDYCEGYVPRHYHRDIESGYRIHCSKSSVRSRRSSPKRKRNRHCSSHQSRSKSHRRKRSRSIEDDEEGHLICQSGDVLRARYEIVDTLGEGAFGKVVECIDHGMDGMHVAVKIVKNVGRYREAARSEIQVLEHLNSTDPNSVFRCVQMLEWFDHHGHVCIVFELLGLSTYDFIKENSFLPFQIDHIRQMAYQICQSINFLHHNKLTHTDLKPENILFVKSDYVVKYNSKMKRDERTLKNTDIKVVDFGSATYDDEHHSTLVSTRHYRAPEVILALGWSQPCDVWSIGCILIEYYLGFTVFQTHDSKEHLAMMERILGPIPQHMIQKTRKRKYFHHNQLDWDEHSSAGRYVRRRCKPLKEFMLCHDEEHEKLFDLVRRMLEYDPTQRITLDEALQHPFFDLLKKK
Chain of EIF2AK2 (human) (P19525 whole entry, looked up): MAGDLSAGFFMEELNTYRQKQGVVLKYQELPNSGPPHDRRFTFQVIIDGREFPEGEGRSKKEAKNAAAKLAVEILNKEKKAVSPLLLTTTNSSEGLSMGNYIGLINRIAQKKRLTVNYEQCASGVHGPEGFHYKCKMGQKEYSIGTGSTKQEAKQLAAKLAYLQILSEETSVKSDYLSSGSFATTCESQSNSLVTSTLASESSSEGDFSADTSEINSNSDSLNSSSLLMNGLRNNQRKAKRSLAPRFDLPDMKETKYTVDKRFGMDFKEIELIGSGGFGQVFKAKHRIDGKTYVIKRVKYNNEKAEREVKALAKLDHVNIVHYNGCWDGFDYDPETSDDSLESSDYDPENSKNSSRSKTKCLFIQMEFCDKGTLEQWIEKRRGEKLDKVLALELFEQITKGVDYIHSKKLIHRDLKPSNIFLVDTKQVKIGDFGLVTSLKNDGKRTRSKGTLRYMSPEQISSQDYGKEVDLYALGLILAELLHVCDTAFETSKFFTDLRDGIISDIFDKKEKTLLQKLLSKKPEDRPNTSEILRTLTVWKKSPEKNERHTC

**Q.** What does the source list for `CNc1nc(Nc2ccc(C(=O)N3CCOCC3)cc2OC)ncc1Cl`?
**A.** kinase still bound, per cent of control [1]: 65%; kinase still bound, per cent of control [2]: 99%; kinase still bound, per cent of control [3]: 100%; residual activity [4]: 94%; kinase still bound, per cent of control [5]: 100%; kinase still bound, per cent of control [6]: 76%; kinase still bound, per cent of control [7]: 100%; kinase still bound, per cent of control [8]: 100%; kinase still bound, per cent of control [9]: 100%; kinase still bound, per cent of control [10]: 100%; kinase still bound, per cent of control [11]: 87%; kinase still bound, per cent of control [12]: 56%; kinase still bound, per cent of control [13]: 25%; kinase still bound, per cent of control [14]: 90%; kinase still bound, per cent of control [15]: 65%; kinase still bound, per cent of control [16]: 100%; kinase still bound, per cent of control [17]: 100%; kinase still bound, per cent of control [18]: 100%; kinase still bound, per cent of control [19]: 44%; kinase still bound, per cent of control [20]: 98%; kinase still bound, per cent of control [21]: 100%; kinase still bound, per cent of control [22]: 87%; kinase still bound, per cent of control [23]: 100%; kinase still bound, per cent of control [24]: 88%; kinase still bound, per cent of control [25]: 95%; residual activity [26]: 84%; kinase still bound, per cent of control [27]: 99%; kinase still bound, per cent of control [28]: 98%; kinase still bound, per cent of control [29]: 100%; kinase still bound, per cent of control [30]: 100%; kinase still bound, per cent of control [31]: 54%; kinase still bound, per cent of control [32]: 53%; kinase still bound, per cent of control [33]: 38%; kinase still bound, per cent of control [34]: 100%; kinase still bound, per cent of control [35]: 100%; kinase still bound, per cent of control [36]: 20%; kinase still bound, per cent of control [37]: 95%; kinase still bound, per cent of control [38]: 78%; kinase still bound, per cent of control [39]: 95%
